Structures are written as SMILES. The source made the active and inactive calls. The rule behind the calls is not given here.

What is called inhibition is the drop in the measured response relative to a control, in per cent. One may read the IC50 as the concentration needed to halve the response being measured.

The test system of test [1] is A549. In words: Induction of cell cycle arrest in human A549 cells assessed as accumulation at G2/M phase at 10 uM incubated for 48 hrs by PI staining based flow cytometry analysis. It is filed as functional.
For test [2], the system named is A549. In words: Cytotoxicity against human A549 cells assessed as cell growth inhibition at 10 uM incubated for 48 hrs by MTT assay relative to control. In kind it is functional.
The test system of test [3] is A549. In words: Cytotoxicity against human A549 cells assessed as cell growth inhibition incubated for 48 hrs by MTT assay. It is filed as functional, cell-based. The settings on record: A549, 48 h.

On to `COc1ccccc1C(=O)c1cccc2c3ccccc3n(-c3ncccn3)c12`, for which the result in the test on A549 [1] was Active. The inhibition at 10 µM in the test on A549 [2] was less than 50%. The IC50 in the test with A549 [3] turned out to be 4.02 µM.
For `O=C(c1ccc(Br)cc1)c1cccc2c3ccccc3n(-c3ncccn3)c12` the same measures were “Active”, 50% and 7.5 µM.
For `O=C(c1ccc(F)cc1)c1cccc2c3ccccc3n(-c3ncccn3)c12` the same measures were “Active”, less than 50% and 2.58 µM.
Consider `O=C(c1ccc(Cl)cc1)c1cccc2c3ccccc3n(-c3ncccn3)c12`, for which, in the test on A549 [1], the outcome was Active. Besides, the inhibition at 10 µM with A549 [2] was 50%. Further, the IC50 in the test on A549 [3] was 6.69 µM.
Turning to `Cc1ccc(C(=O)c2cccc3c4ccccc4n(-c4ncccn4)c23)cc1`, the result in the test on A549 [1] was Active. For the same compound, the inhibition at 10 µM with A549 [2] stood at 50%. In addition, in the test with A549 [3], the IC50 was determined as 10 µM.
In the case of `O=C(c1ccc(I)cc1)c1cccc2c3ccccc3n(-c3ncccn3)c12`, in the test with A549 [1], the result was Active. Besides, in the test with A549 [3], the IC50 amounted to 12.5 µM.
Regarding `O=C(c1cccc(Cl)c1)c1cccc2c3ccccc3n(-c3ncccn3)c12`, the outcome in the test with A549 [1] was Active. Besides, the inhibition at 10 µM in the test with A549 [2] was 50%. In the test on A549 [3], the IC50 is 7.19 µM.
Regarding `COc1ccc(C(=O)c2cccc3c4ccccc4n(-c4ncccn4)c23)cc1OC`, the outcome in the test on A549 [1] was Active. Also, the inhibition at 10 µM in the test with A549 [2] is 50%. Moreover, the 50% inhibitory concentration (IC50) with A549 [3] was determined as 3.1 µM.
With `CCOC(=O)c1cccc2c3ccccc3n(-c3ncccn3)c12`, the inhibition at 10 µM in the test on A549 [2] was found to be 50%.
For `Cc1c2ccncc2c(C)c2c1[nH]c1ccccc12` [ELLIPTECINE], in the test on A549 [3], the 50% inhibitory concentration (IC50) was 3.45 µM.
As to `CC(C)(C)OC(=O)c1cccc2c3cc(Cl)ccc3n(-c3ncccn3)c12`, in the test on A549 [1], the result was Active.
In the case of `O=C(c1ccccc1)c1cccc2c3ccccc3n(-c3ncccn3)c12`, the result with A549 [1] was Active. For the same compound, the inhibition at 10 µM with A549 [2] is 50%. In addition, the IC50 in the test on A549 [3] is 5.32 µM.
Consider `O=C(c1ccc(O)c(O)c1)c1cccc2c3ccccc3n(-c3ncccn3)c12`, for which the inhibition at 10 µM in the test on A549 [2] stood at 50%. Moreover, the IC50 with A549 [3] is 8.86 µM.
The corresponding values for `O=C(c1ccc(OCc2ccccc2)cc1)c1cccc2c3ccccc3n(-c3ncccn3)c12` are less than 50% and 2.15 µM.
On to `N#Cc1cccc(C(=O)c2cccc3c4ccccc4n(-c4ncccn4)c23)c1`, for which the inhibition at 10 µM in the test with A549 [2] was less than 50%. In the test on A549 [3], the IC50 came to 13.7 µM.
For the compound `O=C(c1cccs1)c1cccc2c3ccccc3n(-c3ncccn3)c12`, the result in the test on A549 [1] was Active. For the same compound, in the test on A549 [2], the inhibition at 10 µM was less than 50%. Further, in the test with A549 [3], the IC50 was found to be 4.02 µM.
For `O=C(O)c1cccc2c3ccccc3n(-c3ncccn3)c12`, the IC50 in the test with A549 [3] was 15.5 µM.
`O=C(c1ccco1)c1cccc2c3ccccc3n(-c3ncccn3)c12`: the result in the test on A549 [1] was Active. The inhibition at 10 µM in the test on A549 [2] came to 50%. The IC50 in the test on A549 [3] worked out at 14.9 µM.
For `O=C(c1ccccc1Cl)c1cccc2c3ccccc3n(-c3ncccn3)c12` the same measures were “Active”, 50% and 6.84 µM.
As to `COc1cccc(C(=O)c2cccc3c4ccccc4n(-c4ncccn4)c23)c1`, the outcome in the test with A549 [1] was Active. Further, the inhibition at 10 µM in the test with A549 [2] was determined as 50%. Besides, in the test on A549 [3], the IC50 turned out to be 2.39 µM.
On to `O=C(OCc1ccccc1)c1cccc2c3ccccc3n(-c3ncccn3)c12`, for which the result with A549 [1] was Active. Also, in the test with A549 [3], the IC50 was found to be 5.23 µM.
On to `O=C(c1ccc(C(F)(F)F)cc1)c1cccc2c3ccccc3n(-c3ncccn3)c12`, for which, in the test with A549 [1], the outcome was Active. Moreover, in the test on A549 [2], the inhibition at 10 µM was determined as 50%. In the test with A549 [3], the IC50 is 15.6 µM.

Source of the values: ChEMBL document CHEMBL5154761, “Design, synthesis, and evaluation of 9-(pyrimidin-2-yl)-9H-carbazole derivatives disrupting mitochondrial homeostasis in human lung adenocarcinoma” (Eur J Med Chem, 2022).
